In patent US4740233A, “Substituted 1,2,4-triazolo[1,5-a]-pyrimidine-2-sulfonamides and compositions and methods of controlling undesired vegetation and suppressing the nitrification of ammonium nitrogen in soil” (The Dow Chemical Company, priority 1986, dated 1988):

Assays:
[1] = system: annual sugar beet variety (SLC03); assay: Plant growth regulator activity, postemergence; assay type: in vivo; conditions: for minimal effective concentration: Beta vulgaris, post-emergence, 672 h, 4 weeks after spraying, read-out: Bolting Inhibition (postemergence), concentration with observed effect
Source text: (§1) Using a regular biennial variety, even a bolting-susceptible variety would require a cold treatment of around 10-16 weeks plus a hormone treatement in conjunction with specific light intensities. Thus, for a screening organism, we selected one which would consistently produce bolting on a regular schedule. The screen is run with an annual sugar beet variety (SLC03) provided by Dr. Richard J. Hecker, Fort Collins, Colo. This variety is an inbred which bolts in the 6- to 8-leaf stage without any need for vernalization. This allows the screen to be run entirely in the greenhouse with all 110 chemical compounds tested on one tray. The sugarbeets are grown in 3×3 inch square pots in a greenhouse sandy loam potting mix. The sugarbeets are sprayed with test compounds when they are 2 to 3 weeks old (2 true leaves). The compounds are dissolved in acetone and diluted with water containing Tween 20 as a wetting agent. The concentration of acetone in the final spray is 20% and the concentration of Tween 20 is 0.05 percent. The plants are examined for the appearance of a bolt 4 weeks after spraying.

[2] = system: nitrification of ammonium nitrogen; assay: Suppression of nitrification of ammonium nitrogen in soil; conditions: 27° C.
In short: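 Soil (20 g) moistened to its 1/3 bar tension value, mixed with test chemical and incubated sealed for two weeks at 27° C. Nitrate extracted with ammonium sulfate solution and measured by nitrate-specific ion electrode; value given as % NH4-N remaining.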

crabgrass = assay: Postemergent control of plant species; assay type: in vivo, Digitaria spp.; conditions: Digitaria sanguinalis, post-emergence, 336 h, read-out: percent postemergent control
In short: (§2)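 Foliar spray, 2-4 leaf stage, greenhouse. Formulation: acetone solution (2x final conc.) mixed 1:1 with water + 0.1% surface active agent. ~2 wk hold, watered as needed. Readout = % growth reduction vs untreated same-species controls.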

pigweed = assay: Postemergent control of plant species; assay type: in vivo, Amaranthus spp.; conditions: Amaranthus retroflexus, post-emergence, 336 h, read-out: percent postemergent control
In short: as §2

soybean [3] = assay: Postemergent control of plant species; assay type: in vivo, Glycine max.; conditions: Glycine max, post-emergence, 336 h, read-out: percent postemergent control
In short: as §2

johnson grass [4] = assay: Postemergent control of plant species; assay type: in vivo, Sorghum halepense; conditions: Sorghum halepense, post-emergence, 336 h, read-out: percent postemergent control
In short: as §2

cotton [5] = assay: Postemergent control of plant species; assay type: in vivo, Gossypium spp.; conditions: Gossypium hirsutum, post-emergence, 336 h, read-out: percent postemergent control
In short: as §2

sugar beet [6] = assay: Postemergent control of plant species; assay type: in vivo, Beta saccharifera; conditions: Beta vulgaris, post-emergence, 336 h, read-out: percent postemergent control
In short: as §2

rape [7] = assay: Postemergent control of plant species; assay type: in vivo, Brassica napus; conditions: Brassica napus, post-emergence, 336 h, read-out: percent postemergent control
In short: as §2

barnyardgrass [8] = assay: Postemergent control of plant species; assay type: in vivo, Echinochloa crusgalli; conditions: Echinochloa crus-galli, post-emergence, 336 h, read-out: percent postemergent control
In short: as §2

jimsonweed [9] = assay: Postemergent control of plant species; assay type: in vivo, Datura stramonium; conditions: Datura stramonium, post-emergence, 336 h, read-out: percent postemergent control
In short: as §2

rice [10] = assay: Postemergent control of plant species; assay type: in vivo, Oryza sativa; conditions: Oryza sativa, post-emergence, 336 h, read-out: percent postemergent control
In short: as §2

wild oats [11] = assay: Postemergent control of plant species; assay type: in vivo, Avena fatua; conditions: Avena fatua, post-emergence, 336 h, read-out: percent postemergent control
In short: as §2

velvetleaf [12] = assay: Postemergent control of plant species; assay type: in vivo, Abutilon theophrasti; conditions: Abutilon theophrasti, post-emergence, 336 h, read-out: percent postemergent control
In short: as §2

corn [13] = assay: Postemergent control of plant species; assay type: in vivo, Zea mays; conditions: Zea mays, post-emergence, 336 h, read-out: percent postemergent control
In short: as §2

wheat [14] = assay: Postemergent control of plant species; assay type: in vivo, Triticum aestivum; conditions: Triticum aestivum, post-emergence, 336 h, read-out: percent postemergent control
In short: as §2

yellow nutsedge [15] = assay: Postemergent control of plant species; assay type: in vivo, Cyperus esculentus; conditions: Cyperus, post-emergence, 336 h, read-out: percent postemergent control
In short: as §2

sorghum [16] = assay: Postemergent control of plant species; assay type: in vivo, Sorghum vulgare; conditions: Sorghum, post-emergence, 336 h, read-out: percent postemergent control
In short: as §2

annual morning glory [17] = assay: Postemergent control of plant species; assay type: in vivo, Ipomoea spp.; conditions: Ipomoea, post-emergence, 336 h, read-out: percent postemergent control
In short: as §2

yellow foxtail [18] = assay: Postemergent control of plant species; assay type: in vivo, Setaria lutescens; conditions: Setaria, post-emergence, 336 h, read-out: percent postemergent control
In short: as §2

rape [19] = assay: Preemergent control of plant species; assay type: in vivo, Brassica napus; conditions: Brassica napus, pre-emergence, 336 h; 0.25 lb/acre; read-out: percent preemergent control
In short: (§3)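 Growth reduction relative to untreated plants of the same species, assessed two weeks after treatment, defines the control value. Compositions, mostly aqueous emulsions, were deposited uniformly on seeded greenhouse soil beds at the tabulated rates, with a water-treated bed as reference.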

barnyardgrass [20] = assay: Preemergent control of plant species; assay type: in vivo, Echinochloa crusgalli; conditions: Echinochloa crus-galli, pre-emergence, 336 h; 0.25 lb/acre; read-out: percent preemergent control
In short: as §3

corn [21] = assay: Preemergent control of plant species; assay type: in vivo, Zea mays; conditions: Zea mays, pre-emergence, 336 h; 0.25 lb/acre; read-out: percent preemergent control
In short: as §3

soybean [22] = assay: Preemergent control of plant species; assay type: in vivo, Glycine max.; conditions: Glycine max, pre-emergence, 336 h; 0.25 lb/acre; read-out: percent preemergent control
In short: as §3

jimsonweed [23] = assay: Preemergent control of plant species; assay type: in vivo, Datura stramonium; conditions: Datura stramonium, pre-emergence, 336 h; 0.25 lb/acre; read-out: percent preemergent control
In short: as §3

velvetleaf [24] = assay: Preemergent control of plant species; assay type: in vivo, Abutilon theophrasti; conditions: Abutilon theophrasti, pre-emergence, 336 h; 0.25 lb/acre; read-out: percent preemergent control
In short: as §3

rice [25] = assay: Preemergent control of plant species; assay type: in vivo, Oryza sativa; conditions: Oryza sativa, pre-emergence, 336 h; 0.25 lb/acre; read-out: percent preemergent control
In short: as §3

annual morning glory [26] = assay: Preemergent control of plant species; assay type: in vivo, Ipomoea spp.; conditions: Ipomoea, pre-emergence, 336 h; 0.25 lb/acre; read-out: percent preemergent control
In short: as §3

sugar beet [27] = assay: Preemergent control of plant species; assay type: in vivo, Beta saccharifera; conditions: Beta vulgaris, pre-emergence, 336 h; 0.25 lb/acre; read-out: percent preemergent control
In short: as §3

wheat [28] = assay: Preemergent control of plant species; assay type: in vivo, Triticum aestivum; conditions: Triticum aestivum, pre-emergence, 336 h; 0.25 lb/acre; read-out: percent preemergent control
In short: as §3

yellow foxtail [29] = assay: Preemergent control of plant species; assay type: in vivo, Setaria lutescens; conditions: Setaria, pre-emergence, 336 h; 0.25 lb/acre; read-out: percent preemergent control
In short: as §3

yellow nutsedge [30] = assay: Preemergent control of plant species; assay type: in vivo, Cyperus esculentus; conditions: Cyperus, pre-emergence, 336 h; 0.25 lb/acre; read-out: percent preemergent control
In short: as §3

cotton [31] = assay: Preemergent control of plant species; assay type: in vivo, Gossypium spp.; conditions: Gossypium hirsutum, pre-emergence, 336 h; 0.25 lb/acre; read-out: percent preemergent control
In short: as §3

wild oats [32] = assay: Preemergent control of plant species; assay type: in vivo; conditions: Avena fatua, pre-emergence, 336 h; 0.25 lb/acre; read-out: percent preemergent control
In short: as §3

johnson grass [33] = assay: Preemergent control of plant species; assay type: in vivo, Sorghum halepense; conditions: Sorghum halepense, pre-emergence, 336 h; 0.25 lb/acre; read-out: percent preemergent control
In short: as §3

sorghum [34] = assay: Preemergent control of plant species; assay type: in vivo, Sorghum vulgare; conditions: Sorghum, pre-emergence, 336 h; 0.25 lb/acre; read-out: percent preemergent control
In short: as §3

cocklebur = assay: Postemergent control of plant species; assay type: in vivo, Xanthium spp.; conditions: Xanthium strumarium, post-emergence, 336 h, read-out: percent postemergent control
In short: as §2

[35] = system: annual sugar beet variety (SLC03); assay: Plant growth regulator activity, preemergence; assay type: in vivo; conditions: Beta vulgaris, pre-emergence; 6-7 weeks; read-out: Bolting Inhibition (preemergence), concentration with observed effect
Source text: as §1
Preemergence tests are conducted by spraying formulated chemical on seeds placed on potting soil. The sprayed seeds are then covered with 1/4 inch of potting soil and the pots are watered. Bolting is evaluated 6-7 weeks after the initiation of the test. At this time untreated plants have a vigorous bolting stem with visible flowers.

SMILES	minimal effective concentration [1] [µg/mL]	% NH4-N Remaining After 2 Weeks Incubation ([2]; 0.06 ppm) [%]	% NH4-N Remaining After 2 Weeks Incubation ([2]; 0.25 ppm) [%]	% NH4-N Remaining After 2 Weeks Incubation ([2]; 1 ppm) [%]	% NH4-N Remaining After 2 Weeks Incubation ([2]; 4 ppm) [%]	pest or weed control at 500 ppm (crabgrass) [%]	pest or weed control at 500 ppm (pigweed) [%]	plant injury at 500 ppm (soybean [3]) [%]	pest or weed control at 500 ppm (johnson grass [4]) [%]	plant injury at 500 ppm (cotton [5]) [%]	plant injury at 500 ppm (sugar beet [6]) [%]	plant injury at 500 ppm (rape [7]) [%]	pest or weed control at 500 ppm (barnyardgrass [8]) [%]	pest or weed control at 500 ppm (jimsonweed [9]) [%]	plant injury at 500 ppm (rice [10]) [%]	pest or weed control at 500 ppm (wild oats [11]) [%]	pest or weed control at 500 ppm (velvetleaf [12]) [%]	plant injury at 500 ppm (corn [13]) [%]	plant injury at 500 ppm (wheat [14]) [%]	pest or weed control at 500 ppm (yellow nutsedge [15]) [%]	further results
Cc1cc(C)n2nc(S(=O)(=O)Nc3c(F)cccc3Oc3ccc(C(F)(F)F)cc3Cl)nc2n1 [Compound 98]	400	0	25	0	37																
COC(=O)c1cccc(C)c1N(Cc1ccccc1)S(=O)(=O)c1nc2nc(C)cc(C)n2n1 [Compound 267]	400	0	0	0	11	90	60	45	75	0	80	80	35	80	40	0	95	0	0	40	observed effect (postemergence) ([1]; 400 ppm): stunting; plant injury at 500 ppm (sorghum [16]): 65%; pest or weed control at 500 ppm (annual morning glory [17]): 90%; pest or weed control at 500 ppm (yellow foxtail [18]): 70%
Cc1cc(C)n2nc(S(=O)(=O)Nc3c(C)ccc(Cl)c3C)nc2n1 [Compound 65]	12	5	52	65	85																plant injury at 280.212 g/ha (rape [19]): 20%; pest or weed control at 280.212 g/ha (barnyardgrass [20]): 70%; plant injury at 280.212 g/ha (corn [21]): 0%; plant injury at 280.212 g/ha (soybean [22]): 100%; pest or weed control at 280.212 g/ha (jimsonweed [23]): 90%; pest or weed control at 280.212 g/ha (velvetleaf [24]): 20%; plant injury at 280.212 g/ha (rice [25]): 30%; pest or weed control at 280.212 g/ha (annual morning glory [26]): 50%; plant injury at 280.212 g/ha (sugar beet [27]): 100%; plant injury at 280.212 g/ha (wheat [28]): 0%; pest or weed control at 280.212 g/ha (yellow foxtail [29]): 95%; pest or weed control at 280.212 g/ha (yellow nutsedge [30]): 95%; plant injury at 280.212 g/ha (cotton [31]): 0%; pest or weed control at 280.212 g/ha (wild oats [32]): 0%; pest or weed control at 280.212 g/ha (johnson grass [33]): 95%
CC(C)c1ccn2nc(S(=O)(=O)Nc3c(Cl)cccc3Cl)nc2n1 [Compound 204]	400																				plant injury at 280.212 g/ha (rape [19]): 40%; pest or weed control at 280.212 g/ha (barnyardgrass [20]): 0%; plant injury at 280.212 g/ha (corn [21]): 40%; plant injury at 280.212 g/ha (soybean [22]): 0%; pest or weed control at 280.212 g/ha (velvetleaf [24]): 0%; plant injury at 280.212 g/ha (rice [25]): 0%; pest or weed control at 280.212 g/ha (annual morning glory [26]): 0%; % NH4-N Remaining After 2 Weeks Incubation ([2]; 0.6 ppm): 0%; % NH4-N Remaining After 2 Weeks Incubation ([2]; 1.25 ppm): 0%; % NH4-N Remaining After 2 Weeks Incubation ([2]; 2.5 ppm): 34%; % NH4-N Remaining After 2 Weeks Incubation ([2]; 5 ppm): 56%; % NH4-N Remaining After 2 Weeks Incubation ([2]; 10 ppm): 66%; plant injury at 280.212 g/ha (sugar beet [27]): 90%; plant injury at 280.212 g/ha (wheat [28]): 0%; pest or weed control at 280.212 g/ha (yellow foxtail [29]): 0%; plant injury at 280.212 g/ha (sorghum [34]): 60%; pest or weed control at 280.212 g/ha (yellow nutsedge [30]): 0%; plant injury at 280.212 g/ha (cotton [31]): 80%; pest or weed control at 280.212 g/ha (wild oats [32]): 0%; pest or weed control at 280.212 g/ha (johnson grass [33]): 0%
Cc1cc(C)n2nc(S(=O)(=O)Nc3c(Cl)cccc3-c3ccccc3)nc2n1 [Compound 63]	5	6	6	36	61																
COc1cccc(C=NO)c1NS(=O)(=O)c1nc2nc(C)cc(C)n2n1 [Compound 71]		35	49	84	90	20	0	35	0	75	70	70	0	60	0	0	70	0	0	0	pest or weed control at 500 ppm (cocklebur): 0%; minimal effective concentration [35]: 400 µg/mL; plant injury at 500 ppm (sorghum [16]): 0%; pest or weed control at 500 ppm (annual morning glory [17]): 0%; pest or weed control at 500 ppm (yellow foxtail [18]): 0%
